From patent publication US20230250098A1 (priority 2021, published 2023)
pIC50, pKi: −log10 of the molar value. “Also recorded” adds a separate entry of the source. Where a name gives a salt, the structure may show the parent alone.

Key:
δOP [1] = molecular target: T1, δOP (Homo sapiens, UniProt P41143); type: binding; parameters: membranes isolated; details: for Binding pKi / pKi: [3H]DPDPE, CHO membranes; for pKi: read-out: Binding Ki
HA-mouse μOP = molecular target: T2, HA-mouse μOP (Mus musculus, UniProt P42866); assay: GloSensor cAMP inhibition assay in transfected HEK cells; type: cell-based; details: for cAMP α: efficacy normalized to positive control DAMGO; for pIC50 / cAMP pIC50: inhibition of forskolin-induced cAMP
T2 construct: HA (N); expressed in transfected cells; host or cells: HEK cells, transient transfection together with pGloSensor22F
T2 sequence (P42866 whole entry): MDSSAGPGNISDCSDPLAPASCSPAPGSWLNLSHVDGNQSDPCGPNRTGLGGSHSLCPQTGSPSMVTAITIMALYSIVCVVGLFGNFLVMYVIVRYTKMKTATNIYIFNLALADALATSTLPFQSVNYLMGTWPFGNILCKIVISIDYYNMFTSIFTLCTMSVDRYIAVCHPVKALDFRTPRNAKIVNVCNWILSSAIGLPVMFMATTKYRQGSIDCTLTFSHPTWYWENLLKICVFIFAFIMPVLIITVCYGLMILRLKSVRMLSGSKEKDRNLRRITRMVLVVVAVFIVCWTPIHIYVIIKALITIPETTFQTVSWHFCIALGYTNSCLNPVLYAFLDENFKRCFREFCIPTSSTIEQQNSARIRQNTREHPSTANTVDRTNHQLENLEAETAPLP

μOP = μOP (Homo sapiens, UniProt P35372); type: binding; parameters: membranes isolated; details: for Binding pKi / pKi: [3H]DAMGO, CHO membranes; for pKi: read-out: Binding Ki
Sequence of μOP (P35372 whole entry): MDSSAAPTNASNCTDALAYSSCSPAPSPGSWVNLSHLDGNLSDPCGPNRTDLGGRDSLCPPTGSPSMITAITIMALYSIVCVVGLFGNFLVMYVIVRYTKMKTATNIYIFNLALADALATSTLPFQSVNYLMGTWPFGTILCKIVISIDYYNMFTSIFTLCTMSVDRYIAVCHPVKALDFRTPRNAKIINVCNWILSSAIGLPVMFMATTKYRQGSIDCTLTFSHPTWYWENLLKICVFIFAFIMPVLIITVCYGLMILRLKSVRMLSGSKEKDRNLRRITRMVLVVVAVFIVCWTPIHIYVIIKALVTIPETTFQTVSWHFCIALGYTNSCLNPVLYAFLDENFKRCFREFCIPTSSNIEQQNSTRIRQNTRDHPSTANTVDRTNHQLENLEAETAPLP

κOP [2] = molecular target: T3, κOP (Homo sapiens, UniProt P41145); type: binding; parameters: membranes isolated; details: for pKi: read-out: Binding Ki
T3 sequence (P41145 whole entry): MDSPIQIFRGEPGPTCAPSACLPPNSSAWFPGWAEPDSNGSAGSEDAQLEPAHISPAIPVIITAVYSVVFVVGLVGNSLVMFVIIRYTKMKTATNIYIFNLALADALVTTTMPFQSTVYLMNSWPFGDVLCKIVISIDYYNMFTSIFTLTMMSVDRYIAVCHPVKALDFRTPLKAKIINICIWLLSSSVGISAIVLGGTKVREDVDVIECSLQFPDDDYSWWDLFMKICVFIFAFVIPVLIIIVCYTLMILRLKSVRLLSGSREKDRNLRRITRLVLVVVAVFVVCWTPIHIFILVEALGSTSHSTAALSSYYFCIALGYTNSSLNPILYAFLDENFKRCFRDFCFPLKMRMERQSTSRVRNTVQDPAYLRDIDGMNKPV

wildtype mice = assay: Seizure assay (modified racine scale); details: 10 mg·kg^−1
C57Bl/6 wild-type mice [3] = assay: Two-bottle choice alcohol paradigm (drinking in the dark, 10% ethanol vs water); type: in vivo, mouse
δOP KO mice [4] = assay: Two-bottle choice alcohol paradigm in δOP KO mice; type: in vivo, mouse; details: male δOP KO mice
FLAG-mouse δOP = molecular target: T4, FLAG-mouse δOP (Mus musculus, UniProt P32300); assay: GloSensor cAMP inhibition assay in transfected HEK cells; type: cell-based; details: for cAMP α: efficacy normalized to positive control Leu-Enk; for pIC50 / cAMP pIC50: inhibition of forskolin-induced cAMP
T4 construct: FLAG (N); expressed in transfected cells; host or cells: HEK cells (HEK-293), transient transfection together with pGloSensor22F
T4 sequence (P32300 whole entry): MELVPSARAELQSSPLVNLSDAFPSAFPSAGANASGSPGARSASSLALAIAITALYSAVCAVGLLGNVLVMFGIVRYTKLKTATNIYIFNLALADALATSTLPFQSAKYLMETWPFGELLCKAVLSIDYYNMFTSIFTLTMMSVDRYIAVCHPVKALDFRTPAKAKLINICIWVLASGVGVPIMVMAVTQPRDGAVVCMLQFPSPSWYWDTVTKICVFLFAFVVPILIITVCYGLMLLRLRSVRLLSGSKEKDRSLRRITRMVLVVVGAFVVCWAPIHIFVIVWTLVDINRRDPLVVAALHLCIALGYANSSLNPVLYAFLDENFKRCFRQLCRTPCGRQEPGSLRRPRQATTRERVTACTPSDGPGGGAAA

WT mice [5] = assay: Locomotor evaluation
male, WT mice = assay: Conditioned place preference (brief and extended); details: 10 mg·kg^−1; four conditioning sessions each for drug and vehicle
male mice = assay: Tail flick thermal nociception assay; type: in vivo, mouse
FLAG-mouse κOP = molecular target: T5, FLAG-mouse κOP (Mus musculus, UniProt P33534); type: cell-based; details: for pIC50: read-out: cAMP IC50
T5 construct: FLAG (N); expressed in transfected cells; host or cells: HEK cells, transient transfection together with pGloSensor22F
T5 sequence (P33534 whole entry): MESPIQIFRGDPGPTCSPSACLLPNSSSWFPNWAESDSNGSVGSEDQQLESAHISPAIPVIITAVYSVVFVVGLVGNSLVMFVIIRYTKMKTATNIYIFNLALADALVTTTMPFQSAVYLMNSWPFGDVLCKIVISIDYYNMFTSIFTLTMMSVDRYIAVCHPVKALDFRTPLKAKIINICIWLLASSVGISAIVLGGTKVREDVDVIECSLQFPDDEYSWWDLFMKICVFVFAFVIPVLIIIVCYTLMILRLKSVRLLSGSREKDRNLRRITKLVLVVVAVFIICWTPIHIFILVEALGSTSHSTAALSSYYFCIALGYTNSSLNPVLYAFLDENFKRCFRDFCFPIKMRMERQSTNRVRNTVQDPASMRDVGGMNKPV

C57Bl/6 wild-type mice [6] = details: cited from earlier work; for alcohol consumption, in words (previous reports): dose not stated
WT mice [7] = assay: Accelerating rotarod test; details: 30 mg·kg^−1 i.p.
δOP [8] = molecular target: T1, δOP; type: cell-based
κOP [9] = molecular target: T3, κOP; type: cell-based
δOP KO mice [10] = assay: Accelerating rotarod test in δOP KO mice
[11] = 30 mg·kg^−1 (7-hydroxypaynantheine s.c., speciociliatine i.p.), WT male mice

T1 sequence (P41143 whole entry): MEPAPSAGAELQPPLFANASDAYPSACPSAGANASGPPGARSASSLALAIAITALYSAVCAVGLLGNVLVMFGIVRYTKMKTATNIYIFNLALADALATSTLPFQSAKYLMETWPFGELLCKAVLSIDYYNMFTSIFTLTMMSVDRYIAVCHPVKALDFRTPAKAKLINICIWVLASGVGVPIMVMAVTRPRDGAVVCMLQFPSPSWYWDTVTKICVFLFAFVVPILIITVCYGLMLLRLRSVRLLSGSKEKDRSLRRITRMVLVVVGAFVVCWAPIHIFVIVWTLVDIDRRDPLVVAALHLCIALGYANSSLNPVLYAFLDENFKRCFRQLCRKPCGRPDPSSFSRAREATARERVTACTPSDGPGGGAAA

## CC[C@H]1CN2CC[C@@]3(O)C(=Nc4cccc(OC)c43)[C@@H]2C[C@@H]1/C(=C\OC)C(=O)OC [7OH SPG, 7-hydroxyspeciogynine]
δOP [1]
  δOP binding, in words: improved binding relative to speciogynine
  Binding pKi: 6.3±0.1
  pKi: 6.34
HA-mouse μOP
  cAMP inhibition at the μOP, in words: lowest potency at the μOP; also recorded: reduced μOP potency
  cAMP α: 66 ± 6
  pIC50: 5.62
  cAMP pIC50: 6.2±0.3
μOP
  μOP affinity, in words: strongest μOP affinity
κOP [2]
  Binding pKi: 5.8 ± 0.2 (3)
  pKi: 5.79
Wildtype mice
  seizure activity: did not significantly alter ambulation (paired, two-tailed t-test, t=0.7552, df=6, p=0.4787) (FIG. 5B) or induce seizures
C57Bl/6 wild-type mice [3]; 3 mg·kg^−1 s.c., WT male and female mice
  ethanol consumption, in words: reduced alcohol intake; also recorded: efficacious activity; also recorded: dose-dependently decreased ethanol consumption; also recorded: significantly decreased the percent ethanol consumption
C57Bl/6 wild-type mice [3]; 10 mg·kg^−1, WT mice
  average decrease of ethanol consumption: 1.2 ± 0.2 g/kg
  percent reduction of ethanol consumption: 40±7%
C57Bl/6 wild-type mice [3]; 10 mg·kg^−1 s.c., WT mice
  ethanol consumption, in words: reduced alcohol intake; also recorded: dose-dependently decreased ethanol consumption; also recorded: significantly decreased the percent ethanol consumption
δOP KO mice [4]; 3 mg·kg^−1
  ethanol consumption in δOP KO mice, in words: did not significantly decrease ethanol consumption; also recorded: alcohol consumption was not significantly altered
δOP KO mice [4]; 10 mg·kg^−1
  ethanol consumption in δOP KO mice, in words: did not significantly decrease ethanol consumption; also recorded: alcohol consumption was not significantly altered
FLAG-mouse δOP
  cAMP inhibition at the δOP, in words: strongest activator at the δOP
  difference in potency at the δOP between 7-hydroxyspeciogynine and 7-hydroxypaynantheine: 10 fold
  cAMP α: 76 ± 6
  pIC50: 5.64
  cAMP pIC50: 5.6 ± 0.1 (6)
WT mice [5]; 10 mg·kg^−1
  ambulation / locomotor activity: did not significantly alter ambulation
male, WT mice
  conditioned place preference, extended protocol: did not develop conditioned place preference
Male mice; 10 mg·kg^−1, then morphine 6 mg·kg^−1 s.c. 10 minutes later
  block of morphine analgesia (antagonist mode): did not produce antinociception (paired, two-tailed t-test, t=0.6193, df=9, p=0.5511) or block morphine analgesia
Male mice; 10 mg·kg^−1, 30 minutes after drug
  antinociception (agonist mode): did not produce antinociception
FLAG-mouse κOP
  cAMP pIC50: 5.1 ± 0.3 (3)
  cAMP α: 80 ± 20
  pIC50: 5.11

## C=C[C@H]1CN2CC[C@@]3(O)C(=Nc4cccc(OC)c43)[C@@H]2C[C@@H]1/C(=C\OC)C(=O)OC [70H PAYN, 7-Hydroxypaynantheine]
δOP [1]
  δOP binding, in words: a magnitude weaker in binding the δOP than 7-hydroxyspeciogynine
  Binding pKi: 4.9±0.2
  pKi: 4.90
HA-mouse μOP
  cAMP inhibition at the μOP, in words: lowest potency at the μOP; also recorded: reduced μOP potency
  cAMP α: 80 ± 40
  pIC50: 4.66
  cAMP pIC50: 4.7±0.5
μOP
  Binding pKi: 5.2 ± 0.1 (3)
  pKi: 5.21
κOP [2]
  Binding pKi: 5.1 ± 0.1 (3)
  pKi: 5.13
C57Bl/6 wild-type mice [3]; 10 mg·kg^−1 s.c., WT mice, listed as 7-hydroxypaynanthiene
  ethanol consumption, in words: not 10 mg·kg^−1
C57Bl/6 wild-type mice [3]; [11]
  ethanol consumption, in words: significantly reduce alcohol intake; also recorded: significantly decreased ethanol consumption
C57Bl/6 wild-type mice [3]; 30 mg·kg^−1 (7-hydroxypaynantheine s.c., speciociliatine i.p.), WT male mice, listed as 7-hydroxypaynanthiene
  ethanol consumption, in words: efficacious activity; also recorded: decreased the percent ethanol consumption
C57Bl/6 wild-type mice [3]; 30 mg·kg^−1, WT mice
  average decrease of ethanol consumption: 1.1 ± 0.3 g/kg
  percent reduction of ethanol consumption: 40±11%
δOP KO mice [4]; 30 mg·kg^−1
  ethanol consumption in δOP KO mice, in words: did not significantly decrease ethanol consumption; also recorded: alcohol consumption was not significantly altered
FLAG-mouse δOP
  cAMP α: 70 ± 20
  pIC50: 5.24
  cAMP pIC50: 5.2 ± 0.3 (5)
FLAG-mouse κOP
  cAMP inhibition at the κOP, in words: not detected at the tested dose range

## COc1ccsc1CNCC[C@@]1(c2ccccn2)CCOC2(CCCC2)C1 [Oliceridine]
C57Bl/6 wild-type mice [6]
  alcohol consumption, in words (previous reports): not decrease alcohol consumption

## C=CC1CN2CCC3(Nc4cccc(OC)c4C3=O)C2CC1C(=COC)C(=O)OC (stereo not shown) [PAYN PI, Paynantheine Pseudoindoxyl]
δOP [1]
  Binding pKi: 6.0 ± 0.1 (3)
  pKi: 6.04
HA-mouse μOP
  cAMP inhibition at the μOP, in words: lowest potency at the μOP
  cAMP α: 60 ± 6
  pIC50: 5.32
  cAMP pIC50: 5.3 ± 0.2 (4)
μOP
  Binding pKi: 6.2 ± 0.1 (3)
  pKi: 6.17
κOP [2]
  Binding pKi: 5.9 ± 0.1 (4)
  pKi: 5.88

## CC[C@@H]1CN2CCc3c([nH]c4cccc(OC)c34)[C@H]2C[C@@H]1/C(=C\OC)C(=O)OC [SPECIO, speciociliatine]
WT mice [7]
  rotarod performance (time spent on the rod), in words: significantly reduced the ability of treated wildtype mice to perform in the rotarod assessment; also recorded: significantly impairs motor incoordination; also recorded: significantly decreased time spent on the rod
WT mice [7]; post-injection
  time of full recovery on rotarod: 120 min
δOP [1]
  δOP binding, in words: displayed binding at the δOP
  Binding pKi: 5.4±0.1
  pKi: 5.36
κOP [2]
  Binding pKi: 6.2 ± 0.1 (4)
  pKi: 6.23
C57Bl/6 wild-type mice [3]; [11]
  ethanol consumption, in words: significantly decreased ethanol consumption; also recorded: significant and sharp decrease in alcohol consumption
C57Bl/6 wild-type mice [3]; 30 mg·kg^−1, WT mice
  average decrease of ethanol consumption: 2.5 ± 0.3 g/kg
  percent reduction of ethanol consumption: 90±3%
δOP [8]
  β-arrestin2 recruitment, in words: no β-arrestin2 recruitment was detected
κOP [9]
  β-arrestin2 recruitment, in words: no β-arrestin2 recruitment was detected
δOP KO mice [10]; 30 mg/kg i.p.
  death and seizures in the rotarod assay: one δOP KO mouse died after experiencing severe, level 5-6 seizures
δOP KO mice [10]; 30 mg·kg^−1 i.p.
  rotarod performance, in words: The same effect was observed in δOP KO mice; also recorded: significantly impairs motor incoordination; also recorded: significantly decreased time spent on the rod

## CC[C@H]1CN2CC[C@]3(Nc4cccc(OC)c4C3=O)[C@@H]2C[C@@H]1/C(=C\OC)C(=O)OC [SPG PI, Speciogynine Pseudoindoxyl]
δOP [1]
  Binding pKi: 6.0 ± 0.1 (3)
  pKi: 6.03
HA-mouse μOP
  cAMP α: 58 ± 4
  pIC50: 6.64
  cAMP pIC50: 6.6 ± 0.2 (5)
μOP
  Binding pKi: 7.1 ± 0.1 (3)
  pKi: 7.11
κOP [2]
  Binding pKi: 6.1 ± 0.1 (3)
  pKi: 6.12
FLAG-mouse δOP
  cAMP α: 80 ± 20
  pIC50: 5.07
  cAMP pIC50: 5.1 ± 0.3 (4)
FLAG-mouse κOP
  cAMP pIC50: 4.7 ± 0.5 (4)
  cAMP α: 80 ± 30
  pIC50: 4.69

## CC[C@H]1CN2CCc3c([nH]c4cccc(OC)c34)[C@@H]2C[C@@H]1/C(=C\OC)C(=O)OC [SPG, speciogynine, reference compound]
δOP [1]
  Binding pKi: 5.1 ± 0.1 (6)
  pKi: 5.27
κOP [2]
  Binding pKi: 5.4 ± 0.1 (5)
  pKi: 5.52
C57Bl/6 wild-type mice [3]; systemic (i.p.) injection, modified 2-bottle choice, male C57BL/6 mice, FIG. 1
  alcohol intake, in words: reduce alcohol intake

## CN1CC[C@]2(c3cccc(O)c3)Cc3nc4ccccc4cc3C[C@H]2C1 [TAN-67]
C57Bl/6 wild-type mice [6]
  alcohol consumption, in words (previous reports): efficaciously reduces alcohol use

## C=CCN1CC[C@]23c4c5ccc(O)c4O[C@H]2C(=O)CC[C@@]3(O)[C@H]1C5 [naloxone, naloxone hydrochloride]
WT mice [5]; dose of naloxone considered to be μOP-selective
  block of 7-hydroxymitragynine-induced hyperlocomotion: completely blocked

## Oc1ccc2c3c1O[C@H]1c4[nH]c5ccccc5c4C[C@@]4(O)[C@@H](C2)N(CC2CC2)CC[C@]314 [naltrindole]
C57Bl/6 wild-type mice [6]; 10 mg·kg^−1
  alcohol intake, in words (previous reports): not decrease alcohol intake

## Leu-enkephalin [reference compound]
δOP [8]; normalized to positive control Leu-Enk
  β-arrestin 2 α: 100
FLAG-mouse δOP
  cAMP α: 100
